In brackets after ≈: the same amount, converted by molar mass. Like-named read-outs stand apart in the source and are kept apart here.
Key:
[1] = tested on: S. aureus ΔNorA; assay: Antibacterial MIC assay, serial dilution; assay type: cell-based, Staphylococcus aureus; conditions: for Selectivity index (CC50/MIC) S. aureus ΔNorA: CC50 Vero cells / MIC; for MIC: Staphylococcus aureus, read-out: MIC S. aureus ∆NorA
Method: (§1) Media and solutions were autoclaved or sterile filtered prior to use and mani pulations were carri ed out in a laminar flow hood. Antibacterial t esting was performed in polypropylene 96-well flat bottom plates. The minimal inhibitory concentration of blasticidin S (1) hydrochloride, methyl ester (3) trihydrochloride, P10 (2) tri-T FA , phenet hyl amide (4) tri -T FA , an d blastimidines M 19– 22, A, 29–32, P 37–40, and C 43–46 (salt forms as described in the te xt) were assessed against Staphylococcus aureus ΔNorA, S. aureus ATCC 6538P, methicillin-resistant S. aureus (MRSA) ATCC 43300, Enterococcus faecalis ATCC 29212, vancomycin- resistant Enterococcus, Klebsiella pneumoniae ATCC 29665, Pseudomonas aeruginosa,and Acinetobacter baumannii ATCC 17978 using serial dilutions. Doxycycline (Gold Bio) as a positive control and the vehicle as a negative control. Stock solutions of each compound were prepared at 2.56 mg/mL in 50% DMSO/water and serially diluted in 50% DMSO/water to create master plates. From the master plates, 10 μ L o f each dilution was applied to test plates using a Bravo automated liquid transfer system (Agilent).
(§2) Bacteria previously grown overnight (37 °C, 120–200 RPM), in LB broth were diluted to an OD600 of 0.05 in cation-adjusted Mueller-Hinton broth (CAMHB), grown to an OD600 of ~0.5, and diluted to an OD600 of 0.004 in CAMHB . These diluted cultures were applied to the test plates (190 μL per test well) resulting in final concentrations of the test compounds of 128–1 μg/ m L.
(§3) Growth controls (wells with inoculated media but no vehicle or test compounds) were included to assess any potential toxicity from the vehicle. Th e plates were in cubated at 37 °C for 16–18 h, except fo r VRE and E. faecalis, which w ere in cub ated at 37 °C fo r 24 h. Inh ibition was determined by measuring the optical density at 600 nm (OD60 0) with a Cytation 3 pl ate read er (BioTek). The optical density measurem ents were no rmalized to the positive and negative controls and the vehicle and growth controls were compared and found to b e indistinguishable, indicating no toxicity from […]
(§4) the vehicle used. The MIC was the lowest concentration that inhibited >90% of growth. Two biological replicates were performed in duplicate. MIC values are reported as a range from […]

[2] = tested on: S. aureus ATCC 6538P; assay: Antibacterial MIC assay, serial dilution; assay type: cell-based, Staphylococcus aureus; conditions: for Selectivity index (CC50/MIC) S. aureus 6538P: CC50 Vero cells / MIC; for MIC: Staphylococcus aureus, ATCC 6538P / ATCC 6539P, read-out: MIC S. aureus ATCC 6539P
Method: as §1, §2, §3, §4

[3] = tested on: MRSA ATCC 43300; assay: Antibacterial MIC assay, serial dilution; assay type: cell-based, Staphylococcus aureus; conditions: for Selectivity index (CC50/MIC) MRSA 43300: CC50 Vero cells / MIC; for MIC: Staphylococcus aureus, read-out: MIC MRSA ATCC 43300
Method: as §1, §2, §3, §4

[4] = Cytotoxicity assay (MTS/PMS); assay type: cell-based; conditions: monkey, 24 h treatment, MTS/PMS, average of three biological replicates, read-out: CC50 against Vero cells
Method: The potential cytotoxic eff ect of the test compounds was investigated using Vero cells (monkey kidney epitheli al cells) following est ablished protocols.3 Briefly, Vero cells were plated into 96-well plates supplemented with Dulbecco's Modified Eagle Medium (DMEM) containing 10% fetal bovine serum (FBS). The cells were placed in a humidified 37 °C environment for incubation with 5% CO₂ for 24 h to allow proper adherence and growth. Following the incubation period, the culture medium was replaced with fresh DMEM containing serial dilutions of the test compounds, while the v ehicle alon e w as used as a negative control. The treated cells were incubated for an additional 24 h. To assess cell viability, the MTS/PMS reagent was added to each well and incubat ed for 4 h. A microplate reader (S ynergy H1, BioTek, USA) was used to m easure absorbance at 490 nm. Al l experiments wer e cond ucted usingthree biologi cal replicates .
Ta b l e S2. CC50 valuesa (µg/mL) against Vero cells […]
aValues at which the cell viability (normalized to vehicle control) was 50%. […]

[5] = tested on: Methicillin resistant Staphylococcus epidermidis (MRSE) ATCC 35984 NRS101; assay: Antibacterial MIC assay, serial dilution; assay type: cell-based; conditions: for Selectivity index (CC50/MIC) MRSE 35984: CC50 Vero cells / MIC; for MIC: Staphylococcus epidermidis, read-out: MIC Methicillin resistant Staphylococcus epidermidis (MRSE) ATCC 35984 NRS101
[6] = tested on: Escherichia coli BAA-2452; assay: Antibacterial MIC assay, serial dilution; assay type: cell-based; conditions: BAA2452, read-out: MIC Escherichia coli BAA-2452
[7] = tested on: Klebsiella pneumoniae ATCC 29665; assay: Antibacterial MIC assay, serial dilution; assay type: cell-based; conditions: for Selectivity index (CC50/MIC) K. pneumoniae: CC50 Vero cells / MIC; for MIC: Klebsiella pneumoniae, ATCC29665, range from biological replicates, read-out: MIC K. pneumoniae ATCC-29665
Method: as §1, §2, §3, §4

[8] = tested on: Acinetobacter baumannii ATCC 17978; assay: Antibacterial MIC assay, serial dilution; assay type: cell-based; conditions: ATCC17978, range from biological replicates
Method: as §1, §2, §3, §4

[9] = tested on: Enterococcus faecalis ATCC 29212; assay: Antibacterial MIC assay, serial dilution; assay type: cell-based; conditions: for Selectivity index (CC50/MIC) E. faecalis 29212: CC50 Vero cells / MIC; for MIC: Enterococcus faecalis, ATCC 29112 / ATCC 29212, 24 h, read-out: MIC E. faecalis ATCC 29112
Method: as §1, §2, §3, §4

[10] = tested on: Vancomycin resistant Enterococcus faecium NR-31909 (VRE); assay: Antibacterial MIC assay, serial dilution; assay type: cell-based; conditions: for Selectivity index (CC50/MIC) VRE NR-31909: CC50 Vero cells / MIC; for MIC: Enterococcus faecium, VRE, 24 h, read-out: MIC Vancomycin resistant Enterococcus faecium NR-31909 (VRE)
Method: as §1, §2, §3, §4

[11] = tested on: Pseudomonas aeruginosa; assay: Antibacterial MIC assay, serial dilution; assay type: cell-based; conditions: for Selectivity index (CC50/MIC) P. aeruginosa: CC50 Vero cells / MIC; for MIC: Pseudomonas aeruginosa, range from biological replicates, read-out: MIC P. aeruginosa
Method: as §1, §2, §3, §4

[12] = tested on: Methicillin resistant S. aureus (MRSA) USA300; assay: Antibacterial MIC assay, serial dilution; assay type: cell-based, Staphylococcus aureus; conditions: for Selectivity index (CC50/MIC) MRSA USA300: CC50 Vero cells / MIC; for MIC: Staphylococcus aureus, read-out: MIC Methicillin resistant S. aureus (MRSA) USA300
[13] = tested on: Vancomycin resistant E. faecalis NR-31972 (VRE); assay: Antibacterial MIC assay, serial dilution; assay type: cell-based, Enterococcus faecalis; conditions: for Selectivity index (CC50/MIC) VRE NR-31972: CC50 Vero cells / MIC; for MIC: Enterococcus faecalis, VRE, 24 h, read-out: MIC Vancomycin resistant E. faecalis NR-31972 (VRE)
Method: as §1, §2, §3, §4

[14] = Vero cells (monkey kidney epithelial cells)

SMILES | Selectivity index (CC50/MIC) S. aureus ΔNorA [1] | MIC [1] | Selectivity index (CC50/MIC) S. aureus 6538P [2] | MIC [2] | Selectivity index (CC50/MIC) MRSA 43300 [3] | MIC [3] | Selectivity index (CC50/MIC) MRSE 35984 [5] | MIC [5] | MIC [6] | Selectivity index (CC50/MIC) K. pneumoniae [7] | MIC [7] | MIC [8] | Selectivity index (CC50/MIC) E. faecalis 29212 [9] | MIC [9] | Selectivity index (CC50/MIC) VRE NR-31909 [10] | MIC [10] | Selectivity index (CC50/MIC) P. aeruginosa [11] | MIC [11] | Selectivity index (CC50/MIC) MRSA USA300 [12] | MIC [12] | further results
CN(CC[C@H](N)CC(=O)N[C@H]1C=C[C@H](n2ccc(N)nc2=O)O[C@@H]1C(N)=O)C(=N)N [Blastimidine A1, P10, reference compound] | 0.1 | 128 mg/L (≈ 304 µM) | 0.2 | 32 mg/L (≈ 75.9 µM) | 0.2 | 32 mg/L (≈ 75.9 µM) | 0.2 | 32 mg/L (≈ 75.9 µM) | 16 mg/L (≈ 38 µM) | 0.2 | 32 mg/L (≈ 75.9 µM) | 32 mg/L (≈ 75.9 µM) | 0.2 | 32 mg/L (≈ 75.9 µM) | 0.2 | 32 mg/L (≈ 75.9 µM) | 0.1 | 64 mg/L (≈ 152 µM) | 0.4 | 16 mg/L (≈ 38 µM) | CC50 at 24 h [4, 14]: 7 mg/L (≈ 16.6 µM); Selectivity index (CC50/MIC) VRE NR-31972 [13]: 0.1; MIC [13]: 64 mg/L (≈ 152 µM)
CN(CC[C@H](N)CC(=O)N[C@H]1C=C[C@H](n2ccc(NC(=O)c3ccc(N)cc3)nc2=O)O[C@@H]1C(N)=O)C(=N)N [Blastimidine A2] | 0.5 | 32 mg/L (≈ 59.2 µM) | 1.0 | 16 mg/L (≈ 29.6 µM) | 1.0 | 16 mg/L (≈ 29.6 µM) | 0.5 | 32 mg/L (≈ 59.2 µM) | 16 mg/L (≈ 29.6 µM) | 1.0 | 16 mg/L (≈ 29.6 µM) | > 128 mg/L | 1.0 | 16 mg/L (≈ 29.6 µM) | 1.0 | 16 mg/L (≈ 29.6 µM) | <0.1 | > 128 mg/L | 1.0 | 16 mg/L (≈ 29.6 µM) | CC50 at 24 h [4, 14]: 16 mg/L (≈ 29.6 µM); Selectivity index (CC50/MIC) VRE NR-31972 [13]: 0.5; MIC [13]: 32 mg/L (≈ 59.2 µM)
CNc1ccc(C(=O)Nc2ccn([C@H]3C=C[C@H](NC(=O)C[C@@H](N)CCN(C)C(=N)N)[C@@H](C(N)=O)O3)c(=O)n2)cc1 [Blastimidine A3] | 1.5 | 16 mg/L (≈ 28.8 µM) | 2.3 | 8 to 16 mg/L (≈ 14.4 to 28.8 µM) | 1.5 | 16 mg/L (≈ 28.8 µM) | 1.5 | 16 mg/L (≈ 28.8 µM) | 32 mg/L (≈ 57.7 µM) | 0.8 | 32 mg/L (≈ 57.7 µM) | > 128 mg/L | 1.5 | 16 mg/L (≈ 28.8 µM) | 2.0 | 8 to 16 mg/L (≈ 14.4 to 28.8 µM) | <0.2 | > 128 mg/L | 3.0 | 8 mg/L (≈ 14.4 µM) | CC50 at 24 h [4, 14]: 24 mg/L (≈ 43.3 µM); Selectivity index (CC50/MIC) VRE NR-31972 [13]: 0.8; MIC [13]: 32 mg/L (≈ 57.7 µM)
CC(=O)Nc1ccc(C(=O)Nc2ccn([C@H]3C=C[C@H](NC(=O)C[C@@H](N)CCN(C)C(=N)N)[C@@H](C(N)=O)O3)c(=O)n2)cc1 [Blastimidine A4] | 1.1 | 64 mg/L (≈ 110 µM) | 1.1 | 64 mg/L (≈ 110 µM) | 1.1 | 64 mg/L (≈ 110 µM) | 1.1 | 64 mg/L (≈ 110 µM) | 32 mg/L (≈ 54.9 µM) | 3.2 | 16 to 32 mg/L (≈ 27.5 to 54.9 µM) | > 128 mg/L | 2.1 | 32 mg/L (≈ 54.9 µM) | 2.1 | 32 mg/L (≈ 54.9 µM) | <0.5 | > 128 mg/L | 1.1 | 64 mg/L (≈ 110 µM) | CC50 at 24 h [4, 14]: 68 mg/L (≈ 117 µM); Selectivity index (CC50/MIC) VRE NR-31972 [13]: 1.1; MIC [13]: 64 mg/L (≈ 110 µM)
CN(CC[C@H](N)CC(=O)N[C@H]1C=C[C@H](n2ccc(NC(=O)c3ccc(NC(=O)[C@@](C)(N)CO)cc3)nc2=O)O[C@@H]1C(N)=O)C(=N)N [Blastimidine A5] | 0.5 | 128 mg/L (≈ 199 µM) | 1.0 | 64 mg/L (≈ 99.7 µM) | 0.5 | 128 mg/L (≈ 199 µM) | 0.5 | 128 mg/L (≈ 199 µM) | 32 mg/L (≈ 49.9 µM) | 2.0 | 32 mg/L (≈ 49.9 µM) | > 128 mg/L | 1.0 | 64 mg/L (≈ 99.7 µM) | 2.0 | 32 mg/L (≈ 49.9 µM) | <0.5 | > 128 mg/L | 0.5 | 128 mg/L (≈ 199 µM) | CC50 at 24 h [4, 14]: 65 mg/L (≈ 101 µM); Selectivity index (CC50/MIC) VRE NR-31972 [13]: <0.5; MIC [13]: > 128 mg/L
CN(CC[C@H](N)CC(=O)N[C@H]1C=C[C@H](n2ccc(N)nc2=O)O[C@@H]1C(=O)O)C(=N)N [Blastimidine C1, blasticidin S] | <0.1 | > 128 mg/L | <0.1 | > 128 mg/L | <0.1 | > 128 mg/L | <0.1 | > 128 mg/L | 64 mg/L (≈ 151 µM) | 0.1 | 128 mg/L (≈ 303 µM) | > 128 mg/L | 0.6 | 32 mg/L (≈ 75.7 µM) | 0.1 | 128 mg/L (≈ 303 µM) | <0.1 | > 128 mg/L | 0.1 | 128 mg/L (≈ 303 µM) | CC50 at 24 h [4]: 18 mg/L (≈ 42.6 µM); Selectivity index (CC50/MIC) VRE NR-31972 [13]: 0.1; MIC [13]: 128 mg/L (≈ 303 µM)
